ChEMBL document CHEMBL3272212, “Synthesis and antimineralocorticoid activities of some 6-substituted 7 alpha-carboalkoxy steroidal spirolactones” (1977)

Columns and labels:
Type in all cases: functional, Urine
Rattus norvegicus [1] = test: Ratio of MED for Inhibition of deoxycorticosterone acetate-induced urinary electrolyte effects in intragastrically dosed adrenalectomized rat to MED for deoxycorticosterone acetate-induced urinary electrolyte effects in sc dosed adrenalectomized rat
Rattus norvegicus [2] = test: Inhibition of deoxycorticosterone acetate-induced urinary electrolyte effects in sc dosed adrenalectomized rat assessed as increase in Na:K ratio
Rattus norvegicus [3] = test: Inhibition of deoxycorticosterone acetate-induced urinary electrolyte effects in intragastrically dosed adrenalectomized rat assessed as increase in Na:K ratio

How did the Ratio (Rattus norvegicus [1]) turn out when `CC(C)OC(=O)[C@H]1[C@@H]2[C@H](CC[C@@]3(C)[C@H]2CC[C@@]32CCC(=O)O2)[C@@]2(C)CCC(=O)C=C2[C@@H]1O` was run?
The Ratio was 6.

What about the MED (Rattus norvegicus [2]) of the same compound?
Its MED is 0.28 mg.

And the MED (Rattus norvegicus [3])?
Its MED is 1.81 mg.

Which results are given for `CC(=O)S[C@@H]1CC2=CC(=O)CC[C@]2(C)[C@H]2CC[C@@]3(C)[C@@H](CC[C@@]34CCC(=O)O4)[C@H]12` [SPIRONOLACTONE]?
MED (Rattus norvegicus [2]): 0.33 mg; MED (Rattus norvegicus [3]): 0.48 mg

For `[2H][C@H]1C2=CC(=O)CC[C@]2(C)[C@H]2CC[C@@]3(C)[C@@H](CC[C@@]34CCC(=O)O4)[C@@H]2[C@@H]1C(=O)OC`, which MED (Rattus norvegicus [2]) is on record?
Its MED is 0.3 mg.

What about the MED (Rattus norvegicus [3]) of the same compound?
The MED was 1 mg.

With `COC(=O)[C@H]1[C@@H]2[C@H](CC[C@@]3(C)[C@H]2CC[C@@]32CCC(=O)O2)[C@@]2(C)CCC(=O)C=C2[C@@H]1O` as the compound, how does the MED (Rattus norvegicus [2]) read?
Its MED is 0.42 mg.

What about the MED (Rattus norvegicus [3]) of the same compound?
The MED was 2.12 mg.

For `COC(=O)[C@H]1[C@@H]2[C@H](CC[C@@]3(C)[C@H]2CC[C@@]32CCC(=O)O2)[C@@]2(C)CCC(=O)C=C2[C@H]1C`, which MED (Rattus norvegicus [2]) is on record?
The MED was 0.47 mg.

What about the MED (Rattus norvegicus [3]) of the same compound?
Its MED is over 2.4 mg.

Which MED (Rattus norvegicus [2]) does the source give for `C=C1C2=CC(=O)CC[C@]2(C)[C@H]2CC[C@@]3(C)[C@@H](CC[C@@]34CCC(=O)O4)[C@@H]2[C@@H]1C(=O)OC` here?
The MED was over 2.4 mg.

What about the MED (Rattus norvegicus [3]) of the same compound?
Its MED is over 2.4 mg.

With `COC(=O)[C@H]1[C@@H]2[C@H](CC[C@@]3(C)[C@H]2CC[C@@]32CCC(=O)O2)[C@@]2(C)CCC(=O)C=C2[C@@H]1Br` as the compound, how does the MED (Rattus norvegicus [2]) read?
The MED was 0.58 mg.

What about the MED (Rattus norvegicus [3]) of the same compound?
Its MED is 1.05 mg.

What does the source list for `COC(=O)[C@H]1[C@@H]2[C@H](CC[C@@]3(C)[C@H]2CC[C@@]32CCC(=O)O2)[C@@]2(C)CCC(=O)C=C2[C@@H]1C`?
MED (Rattus norvegicus [2]): 0.2 mg; MED (Rattus norvegicus [3]): 0.58 mg
